Patent US10016422B2, “Nanocarrier drug delivery platform” (Oregon State University, priority 2015, dated 2018)
≈ marks a conversion by molar mass, not a printed value.

Test: Intrinsic aqueous solubility and solubility increase in nanoparticles
Type: physicochemical
Conditions: for solubility: aqueous medium; for increase of solubility by incorporation into the nanoparticles: versus intrinsic aqueous solubility

| SMILES | solubility [µg/mL] | increase of solubility by incorporation into the nanoparticles [fold] |
| --- | --- | --- |
| CC(C)(C)c1nc(-c2cccc(NS(=O)(=O)c3c(F)cccc3F)c2F)c(-c2ccnc(N)n2)s1 [DAB, dabrafenib] | 1 (≈ 1.92 µM) | 1000 |
| CC(=O)O[C@@]12CO[C@@H]1C[C@H](O)[C@@]1(C)C(=O)[C@H](O)C3=C(C)[C@@H](OC(=O)[C@H](O)[C@@H](NC(=O)OC(C)(C)C)c4ccccc4)C[C@@](O)([C@@H](OC(=O)c4ccccc4)[C@H]21)C3(C)C [DTX, docetaxel] |  | 455 |
| CO[C@H]1C[C@@H]2CC[C@@H](C)[C@@](O)(O2)C(=O)C(=O)N2CCCC[C@H]2C(=O)O[C@H]([C@H](C)C[C@@H]2CC[C@@H](OCCO)[C@H](OC)C2)CC(=O)[C@H](C)/C=C(\C)[C@@H](O)[C@@H](OC)C(=O)[C@H](C)C[C@H](C)/C=C/C=C/C=C/1C [EVR, everolimus] | 9.6 (≈ 10 µM) | 201 |
| O=c1cc(N2CCOCC2)oc2c(-c3ccccc3)cccc12 [LY, LY294002] | 243 (≈ 791 µM) | 8 |
| CC(=O)Nc1cccc(-n2c(=O)n(C3CC3)c(=O)c3c(Nc4ccc(I)cc4F)n(C)c(=O)c(C)c32)c1 [TRA, trametinib] | 6 (≈ 9.75 µM) | 221 |
